# Tests used:
# [1] = test system: primary human T-cells; test: IL2 secretion measurements in CD3-stimulated T-cells; type: cell-based; details: isomer A; for EC50: CD3 antibody-stimulated T-cells, IL2 in supernatant after 24 hours, read-out: Tcell IL2 CD3 EC50; for Emax: read-out: Emax IL2 (% activation)
# Experimental: As readouts for T-cell activation, IL2 secretion after 24 hours and proliferation after 5 days was measured. Increases in IL2 secretion and proliferation upon compound treatment were assessed as the % of the maximum of reference compound A1. WO 2016/139181 discloses reference compound A1 as example 70. As a counter screen and to make sure that no unwanted TCR-independent activation was triggered, PBS conditions were run for all compounds.
# Expanded primary human T-cells were thawed and cultured in RPMI 1640 (Gibco, #61870-010)+5% human serum (HS, Sigma, #H3667)+1 mM Sodium Pyruvate (Gibco, #11360-039)+50 μM 2-mercaptoethanol (Gibco, #31350-010) and lx Pen-Strep (Life Technologies, #15140122) medium at density of 2 Mio/ml for 3 hours in 5% CO2, 37° C. and 95% humidity. For coating of plates, […] or PBS++ with CD3 antibody (concentration depending on donor and determined by CD3 titrations) was added 100 μl/well to Poly-D Lysine coated 96-well plates. Plates were sealed and incubated at room temperature for 3 hours on a table-top rocking platform. After incubation, plates were washed once with PBS−− and filled with 40 μl/well culture medium only. Compounds were then added (see next section) to medium only plates. After 3 hours of culturing the T-cells, cells were filtered through a cell strainer (Miltenyi Biotech, #130-041-407), counted again and concentration was adjusted to 1.25 Mio/ml.
# Cells were then seeded 80 μl/well to the 40 μl/well including dispensed compounds according to plate layout. By adding cells, compounds were further diluted 1:3, and resulting in 100k cells/120 μl/well. After 24 hours 40 μl of supernatant was collected carefully from the top while not disturbing the cells and transferred into a round bottom 96 well plate. Collected and frozen supernatant was used for detection of IL2 using the IL-2 Human ProQuantum Immunoassay Kit (Invitrogen) or using the Human IL-2 ELISA Kit (Thermo Fisher).
# (§1) Compounds were added in a 5 or 6 pt dose response with the Tecan D300e Digital Dispenser, all conditions 3 times more concentrated than the end-concentration, since cells are added afterwards (80 μl cells to 40 μl prepared medium with treatment). The DR was starting at 20 μM or 10 μM final top concentration and a dilution factor of 3.333. The positive control was the reference compound A1 that was added in a dose response as well, additionally to 3 wells of only 20 μM representing the positive stimulator control. All wells were normalized with DMSO to a final concentration of 0.6% (0.2% end-concentration).
# The immunoassay is done following the manufacturer's manual (Invitrogen, #A35603).
# Additional information: For the immunoassay, MicroAmp™ EnduraPlate™ Optical 384-Well plates are used. Frozen supernatant is thawed and centrifuged for 5 minutes at 1000×g, both steps at 4° C. After centrifugation, required sample amount is taken from the top, and in a separate LightCycler V-bottom plate (working plate) diluted with assay dilution buffer, dilution factor depending on the PBS or CD3 condition but at least 1:3. IL-2 standard and blanks are prepared in the same V-bottom plate, standard with a range of […] (extended version). After preparation, […] of sample dilutions or standard/blanks are transferred to the optical 384-well plate (assay plate) and the 10 μl reaction protocol is being followed. For measurement, the QuantStudio 12K Flex system is used. Raw data is extracted and IL-2 concentrations are calculated with the Thermo Fisher online app (apps.thermofisher.com/apps/proquantum).
# ELISA is done following the manufacturer's manual (Thermo Fisher Scientific, #88-7025-88).
# Additional information: For the ELISA Nunc MaxiSorp 96 well plates are used. Frozen supernatant is thawed and centrifuged for 5 minutes at 1000×g, both steps at 4° C. After that, required sample amount is taken from the top, and in a separate V-bottom plate diluted with ELISA diluent, dilution factor depending on the PBS or CD3 condition. […]
# [2] = test system: primary human T-cells; test: T-cell proliferation assay (CellTiter-Glo); type: cell-based; details: isomer A; for EC50: CD3 antibody-stimulated T-cells, CellTiter-Glo after 5 days, read-out: Tcell Proliferation CD3 EC50; for Emax: read-out: Emax proliferation (% activation)
# Experimental: Expanded primary human T-cells are thawed and cultured in RPMI 1640 (Gibco, #61870-010)+5% human serum (HS, Sigma, #H3667)+1 mM Sodium Pyruvate (Gibco, #11360-039)+50 μM 2-mercaptoethanol (Gibco, #31350-010) and 1× Pen-Strep (Life Technologies, #15140122) medium at density of 2 Mio/ml for 3 hours in 5% CO2, 37° C. and 95% humidity. For coating of plates, PBS++ only or PBS++ with CD3 antibody (concentration depending on donor and determined by CD3 titrations) is added 100 μl/well to Poly-D Lysine coated 96-well plates. Plates are sealed and incubated at room temperature for 3 hours on a table-top rocking platform. After incubation, plates are washed once with PBS−− and filled with 40 μl/well culture medium only. Compounds are then added (see next section) to medium only plates. After 3 hours of culturing the T-cells, cells are filtered through a cell strainer (Miltenyi Biotech, #130-041-407), counted again and concentration is adjusted to 1.25 Mio/ml.
# Cells are then seeded 80 μl/well to the 40 μl/well including dispensed compounds according to plate layout. By adding cells, compounds are further diluted 1:3, and resulting in 100k cells/120 μl/well. After 48 hours 40 μl of supernatant is collected carefully from the top while not disturbing the cells. Cells are assessed for proliferation 5 days later by measuring […] using CellTiterGlo (Promega).
# as §1
# After 5 days, for detection of ATP which is directly proportional to the number of cells present per well, the CellTiter-Glo® 2.0 Reagent is used. After visual control for toxicity or precipitations of the tested compounds, the plates are equilibrated to room temperature for 45 minutes. CellTiter-Glo® 2.0 Reagent is equilibrated to room temperature as well. After equilibration, an equal amount of CellTiter-Glo reagent is added to the cells (80 μl/well) with an electronic multichannel pipette. Plates are placed on a rocking platform for 15 minutes at room temperature. After incubation, the bottom of the plates is sealed with backing tape. Luminescence is measured with PHERAstar FSX (interval time 0.5 sec, gain 3000, focal height 15 mm) and exported as CSV file for analysis in Genedata screener.
# CD3 and PBS plates were analysed separately in Genedata Screener using Roche Normalization PCT_POS_CTRL with DMSO set as Neutral Control and 20 μM of the reference compound A1 set as Stimulator Control/100%.
# For CD3 conditions EC50 and Emax of the fitted sigmoidal curve were reported. If no curve could be fitted, the EC50 was reported as blank field and the Emax was based on individual data points. […] Compounds which activate unstimulated cells (see IL2 measurements) or compounds which negatively affected viability were flagged.
# [3] = Homo sapiens, T-cell, CD3 condition, 24 hours, 20 μM reference compound A1 = 100%, DMSO neutral control
# [4] = Homo sapiens, T-cell, 120 h, CD3 condition, 5 days, 20 μM reference compound A1 = 100%, DMSO neutral control
Compound,"EC50 ([1]; Homo sapiens, T-cell) [nM]",EC50 [1] [nM],"Emax IL2 (% activation) ([1]; CD3 condition, 24 hours, 20 μM reference compound A1 = 100%, DMSO neutral control)",EC50 [2] [nM],"Emax proliferation (% activation) ([2]; CD3 condition, 5 days, 20 μM reference compound A1 = 100%, DMSO neutral control)","Emax [1, 3] [%]","EC50 ([2]; Homo sapiens, T-cell, 120 h) [nM]","Emax [2, 4] [%]"
"2-methyl-2-[5-[(3S)-3-amino-5,5,7-trifluoro-2-oxo-1-[[4-(trifluoromethoxy)phenyl]methyl]-3,4-dihydro-1-benzazepin-8-yl]-1,3,4-oxadiazol-2-yl]propanenitrile and 2-methyl-2-[5-[(3R)-3-amino-5,5,7-trifluoro-2-oxo-1-[[4-(trifluoromethoxy)phenyl]methyl]-3,4-dihydro-1-benzazepin-8-yl]-1,3,4-oxadiazol-2-yl]propanenitrile [Example 2]",,827,256,315,161,,,
"CC(C)(C#N)c1nnc(-c2cc3c(cc2F)C(F)(F)CC(N)C(=O)N3Cc2ccc(-n3cc(C(F)(F)F)cn3)cc2)o1 (racemic) [Example 33, 2-[5-[(3S)-3-amino-5,5,7-trifluoro-2-oxo-1-[[4-[4-(trifluoromethyl)pyrazol-1-yl]phenyl]methyl]-3,4-dihydro-1-benzazepin-8-yl]-1,3,4-oxadiazol-2-yl]-2-methyl-propanenitrile and 2-[5-[(3R)-3-amino-5,5,7-trifluoro-2-oxo-1-[[4-[4-(trifluoromethyl)pyrazol-1-yl]phenyl]methyl]-3,4-dihydro-1-benzazepin-8-yl]-1,3,4-oxadiazol-2-yl]-2-methyl-propanenitrile]",237,,,,,62,98.8,128
"COC(F)(c1nnc(-c2cc3c(cc2F)C(F)(F)C[C@H](N)C(=O)N3Cc2ccc(OC(F)(F)F)cc2)o1)C(F)(F)F (single isomer, unassigned) [Example 4]",821,,,,,91,140,112
"CCN1CC(c2nnc(-c3cc4c(cc3F)C(F)(F)C[C@@H](N)C(=O)N4Cc3ccc(OC(F)(F)F)cc3)o2)CC(F)(F)C1 (single isomer, unassigned) [Example 13]",> 10000,,,,,58,77.7,79
"N[C@@H]1CC(F)(F)c2cc(F)c(-c3nnc(N4CCCC4)o3)cc2N(Cc2ccc(-c3noc(C(F)(F)F)n3)cc2)C1=O (single isomer, unassigned) [Example 14]",982,,,,,239,593,149
"N[C@@H]1CC(F)(F)c2cc(F)c(-c3nnc(N4CCC(F)(F)CC4)o3)cc2N(Cc2ccc(-c3noc(C(F)(F)F)n3)cc2)C1=O (single isomer, unassigned) [Example 15]",1290,,,,,152,127,108

# Now from value to compound, other results behind:
"EC50 ([1]; Homo sapiens, T-cell) [nM]",Compound,EC50 [1] [nM],"Emax IL2 (% activation) ([1]; CD3 condition, 24 hours, 20 μM reference compound A1 = 100%, DMSO neutral control)",EC50 [2] [nM],"Emax proliferation (% activation) ([2]; CD3 condition, 5 days, 20 μM reference compound A1 = 100%, DMSO neutral control)","Emax [1, 3] [%]","EC50 ([2]; Homo sapiens, T-cell, 120 h) [nM]","Emax [2, 4] [%]"
2330,"CC(C)(c1nnc(-c2cc3c(cc2F)C(F)(F)CC(N)C(=O)N3Cc2ccc(Oc3ccccc3)cc2)o1)S(C)(=O)=O (racemic) [Example 5, (3S)-3-amino-5,5,7-trifluoro-8-[5-(1-methyl-1-methylsulfonyl-ethyl)-1,3,4-oxadiazol-2-yl]-1-[(4-phenoxyphenyl)methyl]-3,4-dihydro-1-benzazepin-2-one and (3R)-3-amino-5,5,7-trifluoro-8-[5-(1-methyl-1-methylsulfonyl-ethyl)-1,3,4-oxadiazol-2-yl]-1-[(4-phenoxyphenyl)methyl]-3,4-dihydro-1-benzazepin-2-one]",,,,,165,684,249
280,"CC(C)(C)c1nnc(-c2cc3c(cc2F)C(F)(F)C[C@@H](N)C(=O)N3Cc2ccc(OC3CCCC3)cc2)o1 (single isomer, unassigned) [Example 7]",,,,,94,127,110
373,"CC(C)(c1nnc(-c2cc3c(cc2F)C(F)(F)C[C@@H](N)C(=O)N3Cc2ccc(-c3ccc(C(F)(F)F)cn3)cc2)o1)S(C)(=O)=O (single isomer, unassigned) [Example 8]",,,,,69,185,86
370,"COc1ccc(-c2ccc(CN3C(=O)[C@H](N)CC(F)(F)c4cc(F)c(-c5nnc(C(C)(C)C#N)o5)cc43)cc2)cc1 (single isomer, unassigned) [Example 9]",,,,,133,267,114
378,"COc1ccc(-c2ccc(CN3C(=O)[C@H](N)CC(F)(F)c4cc(F)c(-c5nnc(C(C)(C)S(C)(=O)=O)o5)cc43)cc2)cc1 (single isomer, unassigned) [Example 10]",,,,,57,377,76
367,"CC(C)(C#N)c1nnc(-c2cc3c(cc2F)C(F)(F)C[C@@H](N)C(=O)N3Cc2ccc(-c3ccc(C(F)(F)F)cn3)cc2)o1 (single isomer, unassigned) [Example 12]",,,,,67,409,152
1460,"CC(C)(c1nnc(-c2cc3c(cc2F)C(F)(F)C[C@@H](N)C(=O)N3Cc2ccc(-c3noc(C(F)(F)F)n3)cc2)o1)S(C)(=O)=O (single isomer, unassigned) [Example 16]",,,,,183,296,241
